These results are taken from patent US20180339024A1, “PEPTIDES WITH ANTI-ANGIOGENIC, ANTI-LYMPHANGIOGENIC, AND ANTI-EDEMIC PROPERTIES AND NANOPARTICLE FORMULATIONS” (Asclepix Therapeutics, LLC, priority 2015, published 2018).

“Also recorded” adds a separate entry of the source.

Data set [1] deals with vascular endothelial growth factor receptor (VEGFR). Put plainly: P07 inhibition of VEGF receptor signaling in microvascular endothelial cells. The class given is cell-based. To be noted: FIG. 1. An excerpt:
(§1) Integrins function as co-receptors for many growth factor receptors such as VEGFR, hepatocyte growth factor receptor (HGFR or c-met), insulin-like growth factor receptor (IGFR), and platelet derived growth factor receptor (PDGFR).

Data set [2] relates to hepatocyte growth factor receptor (HGFR or c-met). The experiment in a line: P07 inhibition of HGF receptor signaling in microvascular endothelial cells. It counts as cell-based. The conditions noted are these: FIG. 1.
From the text: as §1

Data set [3] deals with insulin-like growth factor receptor (IGFR). Put plainly: P07 inhibition of IGF receptor signaling in microvascular endothelial cells. The conditions noted are these: FIG. 1. It counts as cell-based.
From the text: as §1

Data set [4] has as its system platelet derived growth factor receptor (PDGFR). The experiment in a line: P07 inhibition of PDGF receptor signaling. It counts as cell-based.
From the text: as §1

A further data set has as its target α5β1 integrin (Homo sapiens, UniProt P05556+P08648). Put plainly: Target identification of P07 (α5β1). It counts as binding.
For the next data set, the target named is αVβ3 integrin (Homo sapiens, UniProt P05106+P06756). Put plainly: Target identification of P07 (αVβ3). It counts as binding.
Chain of αVβ3 integrin (P06756 31-889 limits assumed): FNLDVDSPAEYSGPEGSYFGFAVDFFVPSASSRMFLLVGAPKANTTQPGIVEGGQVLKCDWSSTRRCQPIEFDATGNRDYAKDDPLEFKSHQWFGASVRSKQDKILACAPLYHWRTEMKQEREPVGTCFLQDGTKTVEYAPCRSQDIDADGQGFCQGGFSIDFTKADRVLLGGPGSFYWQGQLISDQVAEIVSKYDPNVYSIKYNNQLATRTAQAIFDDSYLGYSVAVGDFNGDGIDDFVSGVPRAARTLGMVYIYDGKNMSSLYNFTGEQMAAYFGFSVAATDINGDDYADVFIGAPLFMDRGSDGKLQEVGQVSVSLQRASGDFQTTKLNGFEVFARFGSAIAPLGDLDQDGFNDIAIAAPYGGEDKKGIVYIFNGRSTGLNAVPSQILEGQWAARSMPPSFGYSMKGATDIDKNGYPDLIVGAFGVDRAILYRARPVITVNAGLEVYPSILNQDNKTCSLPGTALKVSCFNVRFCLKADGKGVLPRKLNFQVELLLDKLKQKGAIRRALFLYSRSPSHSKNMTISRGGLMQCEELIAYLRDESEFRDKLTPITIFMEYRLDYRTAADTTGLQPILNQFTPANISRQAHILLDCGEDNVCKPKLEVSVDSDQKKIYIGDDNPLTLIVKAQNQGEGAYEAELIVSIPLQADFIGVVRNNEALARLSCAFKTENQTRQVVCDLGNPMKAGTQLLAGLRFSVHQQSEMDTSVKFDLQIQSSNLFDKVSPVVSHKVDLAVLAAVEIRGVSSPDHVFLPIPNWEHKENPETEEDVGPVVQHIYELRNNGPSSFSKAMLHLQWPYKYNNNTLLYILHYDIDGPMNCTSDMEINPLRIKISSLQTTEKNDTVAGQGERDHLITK
Chain of αVβ3 integrin (P06756 891-1048 partner limits assumed): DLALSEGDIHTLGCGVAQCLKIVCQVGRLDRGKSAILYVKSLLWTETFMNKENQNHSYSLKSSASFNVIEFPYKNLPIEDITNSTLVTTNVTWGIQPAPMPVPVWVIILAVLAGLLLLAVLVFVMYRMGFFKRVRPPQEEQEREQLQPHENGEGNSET
Chain of αVβ3 integrin (P05106 27-788): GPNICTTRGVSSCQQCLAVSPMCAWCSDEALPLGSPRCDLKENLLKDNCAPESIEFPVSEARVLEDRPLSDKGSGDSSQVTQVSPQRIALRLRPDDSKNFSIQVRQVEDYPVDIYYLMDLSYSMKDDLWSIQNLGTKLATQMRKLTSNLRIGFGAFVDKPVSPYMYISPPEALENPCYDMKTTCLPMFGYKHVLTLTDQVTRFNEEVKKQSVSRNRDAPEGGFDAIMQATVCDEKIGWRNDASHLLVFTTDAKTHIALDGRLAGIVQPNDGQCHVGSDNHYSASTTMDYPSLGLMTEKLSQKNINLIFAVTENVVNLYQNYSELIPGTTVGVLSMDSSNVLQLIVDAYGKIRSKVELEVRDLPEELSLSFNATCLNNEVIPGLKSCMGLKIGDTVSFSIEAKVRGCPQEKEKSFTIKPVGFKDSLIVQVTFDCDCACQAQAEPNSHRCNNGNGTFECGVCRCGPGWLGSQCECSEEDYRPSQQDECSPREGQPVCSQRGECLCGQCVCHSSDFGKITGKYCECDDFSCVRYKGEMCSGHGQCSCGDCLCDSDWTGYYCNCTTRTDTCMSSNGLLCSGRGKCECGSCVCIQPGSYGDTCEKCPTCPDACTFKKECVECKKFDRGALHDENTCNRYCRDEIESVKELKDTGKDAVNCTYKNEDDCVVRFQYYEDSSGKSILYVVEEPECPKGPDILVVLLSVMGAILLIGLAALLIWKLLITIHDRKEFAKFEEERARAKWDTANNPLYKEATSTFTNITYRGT
Data set [5] deals with transgenic mouse over-expressing the human form of vascular endothelial growth factor (VEGF) in the retina. The experiment in a line: Vascular leakage and retinal detachment in transgenic mouse over-expressing human VEGF in the retina. It counts as in vivo. An excerpt: The vascular leakage in this model is so severe that the blood that pools behind the retina causes retinal detachment.

Data set [6] has as its system rabbit eye, human VEGF induced leakage. The experiment in a line: VEGF induced vascular leakage (edema) model in the rabbit eye. It counts as in vivo. The conditions noted are these: about 50 μg P07 in the eye prior to VEGF injection, fluorescein i.v. 3 days after VEGF, FIG. 3. The protocol: P07 was also tested in a model of edema in the rabbit eye. In this model human VEGF was injected directly into the eye causing the local vasculature to be leaky. The extent of this leak was assessed by measuring the amount of fluorescence in the eye resulting from the leakage of sodium fluorescein administered intravenously 3 days after VEGF injection.

The subject of data set [7] is VEGF induced neovascularization and leakage. Put plainly: Mouse models of retinal and choroidal neovascularization and vascular leakage. The class given is in vivo.
In data set [8] the test system is orthotopic triple-negative breast cancer (TNBC) xenografts. The experiment in a line: Orthotopic triple-negative breast cancer xenografts. It counts as in vivo.
Data set [9] concerns small cell lung cancer (SCLC) xenografts. Put plainly: Small cell lung cancer xenografts. It counts as in vivo. The conditions noted are these: not shown.
The test system of another data set is glioblastoma xenografts. The experiment in a line: Glioblastoma xenografts. It counts as in vivo. The conditions noted are these: not shown.
Data set [10] in a line: Size characterization, Malvern Zetasizer Nano ZS90. The class given is physicochemical. To be noted: 1 mg/ml in water. The protocol: N07 was suspended in water at 1 mg/ml and analyzed using a Malvern Zetasizer Nano ZS90. Z-average diameter and intensity-based size distribution were measured and recorded.

Chain of α5β1 integrin (P08648 42-894 limits assumed): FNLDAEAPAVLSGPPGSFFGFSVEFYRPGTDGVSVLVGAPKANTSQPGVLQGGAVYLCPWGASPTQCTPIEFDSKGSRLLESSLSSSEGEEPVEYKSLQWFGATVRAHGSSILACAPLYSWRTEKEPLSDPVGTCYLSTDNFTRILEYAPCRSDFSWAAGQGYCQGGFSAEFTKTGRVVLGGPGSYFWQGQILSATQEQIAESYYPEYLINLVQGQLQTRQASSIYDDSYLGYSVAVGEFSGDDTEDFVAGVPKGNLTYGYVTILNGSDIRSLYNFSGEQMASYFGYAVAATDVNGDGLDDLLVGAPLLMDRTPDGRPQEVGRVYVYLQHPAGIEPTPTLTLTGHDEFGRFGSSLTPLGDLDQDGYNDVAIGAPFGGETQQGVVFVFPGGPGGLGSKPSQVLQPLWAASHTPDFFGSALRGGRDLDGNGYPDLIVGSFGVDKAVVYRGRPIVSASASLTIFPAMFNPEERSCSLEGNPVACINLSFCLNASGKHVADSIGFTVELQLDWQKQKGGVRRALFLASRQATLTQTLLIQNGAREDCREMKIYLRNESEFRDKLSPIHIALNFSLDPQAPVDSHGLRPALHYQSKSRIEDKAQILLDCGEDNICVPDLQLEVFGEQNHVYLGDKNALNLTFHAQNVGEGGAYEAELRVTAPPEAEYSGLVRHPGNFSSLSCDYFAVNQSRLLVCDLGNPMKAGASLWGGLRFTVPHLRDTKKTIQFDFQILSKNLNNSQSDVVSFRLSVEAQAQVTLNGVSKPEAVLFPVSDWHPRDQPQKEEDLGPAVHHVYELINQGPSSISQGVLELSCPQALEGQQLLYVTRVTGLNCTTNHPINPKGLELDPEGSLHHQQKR
Chain of α5β1 integrin (P08648 895-1049 partner limits assumed): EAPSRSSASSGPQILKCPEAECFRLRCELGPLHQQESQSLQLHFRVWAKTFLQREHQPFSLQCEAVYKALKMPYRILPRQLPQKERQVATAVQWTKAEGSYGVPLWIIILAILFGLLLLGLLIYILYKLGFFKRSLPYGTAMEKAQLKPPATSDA
Chain of α5β1 integrin (P05556 21-798): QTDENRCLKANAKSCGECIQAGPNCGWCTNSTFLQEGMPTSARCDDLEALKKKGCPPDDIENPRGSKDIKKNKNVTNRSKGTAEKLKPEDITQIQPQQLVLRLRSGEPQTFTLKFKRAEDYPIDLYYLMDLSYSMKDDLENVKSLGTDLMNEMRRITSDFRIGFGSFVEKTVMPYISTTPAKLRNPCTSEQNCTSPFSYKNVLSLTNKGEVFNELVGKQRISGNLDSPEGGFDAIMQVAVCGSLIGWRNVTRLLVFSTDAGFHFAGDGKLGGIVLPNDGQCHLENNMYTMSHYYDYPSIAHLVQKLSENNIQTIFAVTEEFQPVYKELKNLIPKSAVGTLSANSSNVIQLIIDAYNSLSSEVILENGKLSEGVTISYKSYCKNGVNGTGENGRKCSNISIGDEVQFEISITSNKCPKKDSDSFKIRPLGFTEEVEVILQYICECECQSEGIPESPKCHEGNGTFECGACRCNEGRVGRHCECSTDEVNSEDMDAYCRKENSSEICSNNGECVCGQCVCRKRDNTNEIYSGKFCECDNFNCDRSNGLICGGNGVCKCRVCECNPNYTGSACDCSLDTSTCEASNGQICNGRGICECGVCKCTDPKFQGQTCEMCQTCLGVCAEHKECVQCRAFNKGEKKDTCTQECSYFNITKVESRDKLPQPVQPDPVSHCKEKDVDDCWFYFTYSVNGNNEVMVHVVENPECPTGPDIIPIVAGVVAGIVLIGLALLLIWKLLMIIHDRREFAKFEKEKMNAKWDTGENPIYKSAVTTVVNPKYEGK

In the case of LRRFSTAPFAFIDINDVINF [P07], the “inhibition of signaling from VEGFR” value in [1] is recorded as “inhibit signaling”. Also, the “inhibition of signaling from HGFR (c-met)” value in data set [2] is “inhibit signaling”. For the same substance, the “inhibition of signaling from IGFR” value in [3] is “inhibit signaling”. In data set [4], the “inhibition of signaling from PDGFR” value was “inhibit signaling”. In addition, the “identified target: α5β1 integrin” value in the data set with α5β1 integrin is “identified to be the α5β1 and αVβ3 integrins”. The “identified target: αVβ3 integrin” value with αVβ3 integrin was “identified to be the α5β1 and αVβ3 integrins”. For the same substance, the vascular leakage result in [5] was “inhibit vascular leakage”. Also, in data set [5] (FIG. 2), the retinal detachment result is listed as “almost completely blocked retinal detachment”. In data set [6], the “vascular leakage (sodium fluorescein fluorescence in the eye)” value is on record as “dramatically inhibited”. Besides, the “VEGF induced neovascularization and leakage” value in data set [7] was “strongly inhibits”. In addition, in [8] (FIG. 4), the “growth of orthotopic TNBC xenografts” value is reported as “inhibits the growth; also recorded: dose dependent manner”. Besides, in data set [8] (FIG. 5), the “tumor vasculature / neovascularization in orthotopic TNBC xenografts” value was “dramatically diminished vasculature; also recorded: inhibits neovascularization”. Besides, the “growth of SCLC xenografts” value in [9] was “inhibits the growth”. For the same substance, the “growth of glioblastoma xenografts” value in the data set with glioblastoma xenografts was “inhibits the growth”.
In the case of “PLGA-PEG-P07: nanoparticles made completely of PLGA-PEG-P07 conjugated polymer (LRRFSTAPFAFIDINDVINF)”, in data set [10], the PDI was 0.29 and the Z-Average came to 77.59 ± 2.65 nm·days.
